Source: ChEMBL document CHEMBL5728860, “[1,2,4]Triazolo[4,3-A]pyrazin-6(5H)-one derivatives” (2021)

Columns and labels:
[1] = biological target: Dual specificity calcium/calmodulin-dependent 3',5'-cyclic nucleotide phosphodiesterase 1A (Homo sapiens, UniProt P54750); assay: Ca2+-Calmodulin Dependent PDE Enzyme Assays: PDE1B, PDE1A, and PDE1C are cloned and purified following standard protein generation procedures. The assay buffer is prepared to give a final concentration in the assay of 50 mM Tris-HCl, 50 mM MgCl2, 4 mM CaCl2, 0.1% Bovine serum albumin and 6 U/ml Calmodulin in water, at pH 7.5. The final enzyme concentration is 0.25, 0.074 and 0.0012 nM, for PDE1A, PDE1B and PDE1C respectively. The reactions are started by addition of the substrate, [3H]cAMP, to give a final concentration of 47 nM.
[2] = biological target: cGMP-inhibited 3',5'-cyclic phosphodiesterase 3A (Homo sapiens, UniProt Q14432); assay: PDE Enzyme Assays Using [3H]cAMP as Substrate: The following phosphodiesterase activities are measured using [3H]cAMP as reaction substrate: human PDE3A (catalytic domain) and human PDE4D. Both enzymes are cloned and purified following standard procedures. The assay buffer is prepared to give a final concentration in the assay of 50 mM Tris-HCl, 8.3 mM MgCl2, 1.7 mM ethylenediaminetetraacetic acid (EDTA) and 0.1% Bovine serum albumin at pH 7.5. Final enzyme concentrations are 0.008 and 0.021 nM for PDE3A and PDE4D, respectively. Reactions are started by addition of the substrate, [3H]cAMP, to give a final concentration of 47 nM.
[3] = biological target: Rod cGMP-specific 3',5'-cyclic phosphodiesterase alpha/beta (Homo sapiens, UniProt P16499+P35913); assay: PDE Enzyme Assays Using [3H]cGMP as Substrate: The following phosphodiesterase activities are measured using [3H]cGMP as reaction substrate: human PDE6A/6B. The catalytic active form of human PDE6 is a dimer composed of a α (human PDE6A) and β subunits (human PDE6B). The dimer of human PDE6A/6B is produced by the coexpression and purification strategy, using two purification steps, i.e., NiNTA and anti-FLAG Sepharose chromatography. The assay buffer is prepared to give a final concentration in the assay of 50 mM Tris-HCl, 8.3 mM MgCl2, 1.7 mM EDTA and 0.1% Bovine serum albumin at pH 7.5. The final enzyme concentration is 5 nM. The reactions are started by addition of the substrate, [3H]cGMP, to give a final concentration of 80 nM.; type: protein-complex assay
Rod cGMP-specific 3',5'-cyclic phosphodiesterase alpha/beta, sequence (P35913 whole entry): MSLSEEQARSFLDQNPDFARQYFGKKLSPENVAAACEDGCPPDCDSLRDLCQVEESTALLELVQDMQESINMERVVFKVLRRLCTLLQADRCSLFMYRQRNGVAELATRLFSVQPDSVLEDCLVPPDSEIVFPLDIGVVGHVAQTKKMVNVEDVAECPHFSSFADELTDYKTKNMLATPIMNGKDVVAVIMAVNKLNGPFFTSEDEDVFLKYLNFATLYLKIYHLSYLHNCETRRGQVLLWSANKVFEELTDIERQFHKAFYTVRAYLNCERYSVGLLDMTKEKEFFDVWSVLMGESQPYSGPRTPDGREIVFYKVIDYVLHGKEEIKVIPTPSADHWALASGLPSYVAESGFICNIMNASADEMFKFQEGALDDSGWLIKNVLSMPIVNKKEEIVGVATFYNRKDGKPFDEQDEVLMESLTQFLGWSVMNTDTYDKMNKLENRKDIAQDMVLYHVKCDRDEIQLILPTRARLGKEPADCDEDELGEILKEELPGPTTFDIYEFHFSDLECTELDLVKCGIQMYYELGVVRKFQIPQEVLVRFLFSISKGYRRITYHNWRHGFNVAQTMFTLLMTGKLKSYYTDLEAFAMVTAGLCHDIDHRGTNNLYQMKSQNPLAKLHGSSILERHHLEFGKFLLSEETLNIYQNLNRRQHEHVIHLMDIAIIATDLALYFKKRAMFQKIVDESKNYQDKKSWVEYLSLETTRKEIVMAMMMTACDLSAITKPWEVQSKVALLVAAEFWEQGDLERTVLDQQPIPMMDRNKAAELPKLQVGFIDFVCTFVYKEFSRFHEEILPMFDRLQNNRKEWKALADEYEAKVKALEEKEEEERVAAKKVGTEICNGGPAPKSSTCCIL
Rod cGMP-specific 3',5'-cyclic phosphodiesterase alpha/beta, sequence (P16499 whole entry): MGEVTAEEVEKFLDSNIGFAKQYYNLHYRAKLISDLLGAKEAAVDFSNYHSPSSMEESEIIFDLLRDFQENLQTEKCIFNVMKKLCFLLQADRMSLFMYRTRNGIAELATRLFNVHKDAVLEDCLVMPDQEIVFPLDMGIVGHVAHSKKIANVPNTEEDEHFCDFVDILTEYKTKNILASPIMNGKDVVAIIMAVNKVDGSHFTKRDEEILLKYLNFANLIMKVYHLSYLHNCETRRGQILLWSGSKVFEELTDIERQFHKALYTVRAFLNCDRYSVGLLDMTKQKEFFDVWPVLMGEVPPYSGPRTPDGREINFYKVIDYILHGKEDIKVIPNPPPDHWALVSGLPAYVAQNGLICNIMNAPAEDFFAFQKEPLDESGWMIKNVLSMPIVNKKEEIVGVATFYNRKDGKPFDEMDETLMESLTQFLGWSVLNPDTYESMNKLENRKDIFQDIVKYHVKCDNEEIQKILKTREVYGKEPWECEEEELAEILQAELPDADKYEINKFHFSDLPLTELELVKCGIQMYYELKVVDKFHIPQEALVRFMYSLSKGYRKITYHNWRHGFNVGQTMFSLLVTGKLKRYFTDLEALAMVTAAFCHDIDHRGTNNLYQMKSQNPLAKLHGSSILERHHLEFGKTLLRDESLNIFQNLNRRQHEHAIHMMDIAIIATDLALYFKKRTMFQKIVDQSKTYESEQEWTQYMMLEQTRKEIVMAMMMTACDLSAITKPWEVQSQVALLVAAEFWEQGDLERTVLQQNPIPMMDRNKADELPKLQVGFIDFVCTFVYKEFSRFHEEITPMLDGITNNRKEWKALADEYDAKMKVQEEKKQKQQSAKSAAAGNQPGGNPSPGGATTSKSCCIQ

Dual specificity calcium/calmodulin-dependent 3',5'-cyclic nucleotide phosphodiesterase 1A, sequence (P54750 whole entry): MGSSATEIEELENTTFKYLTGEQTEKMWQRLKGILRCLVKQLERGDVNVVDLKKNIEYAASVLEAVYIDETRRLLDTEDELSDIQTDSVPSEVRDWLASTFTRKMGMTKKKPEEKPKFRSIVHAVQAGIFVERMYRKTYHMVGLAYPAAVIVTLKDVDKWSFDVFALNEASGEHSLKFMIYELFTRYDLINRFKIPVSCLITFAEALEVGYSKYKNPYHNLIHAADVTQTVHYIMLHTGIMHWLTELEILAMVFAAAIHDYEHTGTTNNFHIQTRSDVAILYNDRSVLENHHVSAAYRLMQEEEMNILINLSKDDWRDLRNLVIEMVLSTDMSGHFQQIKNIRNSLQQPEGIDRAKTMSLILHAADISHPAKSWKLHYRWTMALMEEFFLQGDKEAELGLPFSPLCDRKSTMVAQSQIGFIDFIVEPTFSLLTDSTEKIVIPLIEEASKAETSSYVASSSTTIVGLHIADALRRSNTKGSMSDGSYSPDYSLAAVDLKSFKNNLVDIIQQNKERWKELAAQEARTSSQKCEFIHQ
cGMP-inhibited 3',5'-cyclic phosphodiesterase 3A, sequence (Q14432 whole entry, the tested form may be a part): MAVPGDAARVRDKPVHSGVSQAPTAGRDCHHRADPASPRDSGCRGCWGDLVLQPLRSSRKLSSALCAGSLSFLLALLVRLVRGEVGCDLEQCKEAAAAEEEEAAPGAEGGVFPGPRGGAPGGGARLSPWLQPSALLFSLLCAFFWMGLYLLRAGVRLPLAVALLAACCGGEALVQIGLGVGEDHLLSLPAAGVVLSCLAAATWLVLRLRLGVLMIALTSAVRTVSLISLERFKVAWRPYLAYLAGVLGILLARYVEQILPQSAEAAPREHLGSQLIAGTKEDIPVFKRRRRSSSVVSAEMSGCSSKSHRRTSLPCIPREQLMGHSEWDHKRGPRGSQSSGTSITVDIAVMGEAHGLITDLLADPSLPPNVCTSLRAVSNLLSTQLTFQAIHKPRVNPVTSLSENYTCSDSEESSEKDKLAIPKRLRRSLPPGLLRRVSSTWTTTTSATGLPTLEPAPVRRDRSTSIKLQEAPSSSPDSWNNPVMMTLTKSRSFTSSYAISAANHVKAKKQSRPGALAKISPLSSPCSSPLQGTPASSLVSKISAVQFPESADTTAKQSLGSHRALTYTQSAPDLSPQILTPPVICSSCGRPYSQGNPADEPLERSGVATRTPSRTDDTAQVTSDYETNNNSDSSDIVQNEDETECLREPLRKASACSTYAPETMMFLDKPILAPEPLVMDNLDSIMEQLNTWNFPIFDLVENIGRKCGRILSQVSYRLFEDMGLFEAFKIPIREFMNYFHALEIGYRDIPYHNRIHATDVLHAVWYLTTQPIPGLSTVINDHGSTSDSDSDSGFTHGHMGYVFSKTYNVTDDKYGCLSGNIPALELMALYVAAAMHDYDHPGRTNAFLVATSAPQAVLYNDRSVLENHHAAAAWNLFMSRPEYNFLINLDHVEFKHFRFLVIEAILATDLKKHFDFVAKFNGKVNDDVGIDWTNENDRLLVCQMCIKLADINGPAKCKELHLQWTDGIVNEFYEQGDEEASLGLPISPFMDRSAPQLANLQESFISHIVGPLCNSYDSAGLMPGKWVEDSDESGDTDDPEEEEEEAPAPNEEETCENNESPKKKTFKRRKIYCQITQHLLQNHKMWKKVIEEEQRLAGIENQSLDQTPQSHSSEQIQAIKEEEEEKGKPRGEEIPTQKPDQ

SMILES	IC50 [1] [µM]	IC50 [2] [µM]	IC50 [3] [µM]
CCCCn1c(=O)c2nnc(C3(C4CC4)CC3)n2c2ncc(CO)cc21	0.000996	> 100	3.85
CCCCn1c(=O)c2nnc(C3(C4CC4)CC3)n2c2ncc(CC)cc21	0.000214	> 100	0.982
